Experimental data published in patent US11602534B2, “Pyrimidine derivative kinase inhibitors” (HEFEI INSTITUTES OF PHYSICAL SCIENCE, CHINESE ACADEMY OF …, priority 2017, dated 2023).

How the values were obtained:
[1] = system: human acute myeloid leukemia cell strain MOLM-13; test: Proliferation of MOLM-13 cells, Cell Titer-Glo; type: cell-based; settings: for GI50: Homo sapiens, MOLM-13, 72 hours, Cell Titer-Glo, FLT3/ITD and wild-type FLT3, read-out: GI50 MOLM13
Protocol: (§1) In addition, in this example the inhibitory activity of preferred compounds (Compound 5 and Compound 135) was tested against the following cell strains: human acute myeloid leukemia cell strain MV4-11 (expressing FLT3/ITD mutant gene), human acute myeloid leukemia cell strain MOLM-13 (expressing FLT3/ITD mutant gene and wild-type FLT3 gene), human acute myeloid leukemia cell strain MOLM-14 (expressing FLT3/ITD mutant gene and wild-type FLT3 gene), human acute myeloid leukemia cell strain OCI-AML-3 (expressing FLT3 A680V mutant gene), human chronic lymphatic leukemia cell strain MEC-1, Chinese hamster lung (CHL) cells, Chinese hamster ovary (CHO) cells, wherein all the cells were purchased from ATCC. In the example the compounds of the present invention were added respectively into the above cells at different concentrations (0.000508 μM, 0.00152 μM, 0.00457 μM, 0.0137 μM, 0.0411 μM, 0.123 μM, 0.370 μM, 1.11 μM, 3.33 μM, 10 μM in DMSO) and the cells were incubated for 72 hours. The number of viable cells was determined by quantification of ATP in living cells using Cell Titer-Glo® (Promega, the USA) Luminescent Cell Viability Assay kit and thereby GI50 was calculated.

P210/T315I-BaF3 = test: Proliferation of P210/T315I-BaF3 cells, CCK8 cell viability assay; type: cell-based; settings: Mus musculus, 72 hours, stably expressing BCR-ABL/T315I
Summary of the method: (§2)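 Murine BaF3 cells made IL-3-independent by retroviral transduction of human kinase domains fused to N-terminal TEL or TPR fragments; parental BaF3 included. Living cells quantified by CCK8 (dehydrogenase activity) read-out, giving GI50 in μM.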

P210-BaF3 = test: Proliferation of P210-BaF3 cells, CCK8 cell viability assay; type: cell-based; settings: Mus musculus, 72 hours, stably expressing BCR-ABL mutant activated kinase
Summary of the method: as §2

TEL-VEGFR2-BaF3 = test: Proliferation of TEL-VEGFR2-BaF3 cells, CCK8 cell viability assay; type: cell-based; settings: Mus musculus, 72 hours, stably expressing VEGFR2 kinase
Summary of the method: as §2

protein kinase FLT3 = test: Phosphorylation of FLT3 in AML cells; type: cell-based, human; settings: MV-4-11, MOLM-13 and MOLM-14 cell lines; 4 hours; compounds 0.01-3 μM, PKC412 1 μM
Protocol: In cells having FLT3 gene and/or FLT3/ITD mutant gene, specifically, human acute myeloid leukemia cells MV4-11 (expressing FLT3/ITD mutant gene) cell strain and human acute myeloid leukemia cells MOLM-13 and MOLM-14 (expressing FLT3/ITD mutant gene and wild-type FLT3 gene) cell strains, Compound 5, Compound 135 and a FLT3 kinase inhibitor, PKC412 (purchased from Hao Yuan Chemexpress Company, Shanghai), which was used as the control, were evaluated for their effects in cells on phosphorylation of FLT3 and FLT3/ITD protein kinase and phosphorylation of the closely-related STATS protein which is downstream of FLT3 signaling pathways, as well as their effects on phosphorylation of other relevant protein kinases such as ERK and AKT, by assaying a number of cellular biochemical and functional endpoints. In addition, the effects on C-Myc and phosphorylation of the transcription factor NF-κB subunit p65 was also examined (FIGS. 1a-1f). Compound 5 and Compound 135 at different concentrations (0 μM, 0.01 μM, 0.03 μM, 0.1 μM, 0.3 μM, 1 μM, 3 μM in DMSO) and the FLT3 kinase inhibitor PKC412 (1 μM in DMSO) were used to treat acute myeloid leukemia cells MV-4-11, MOLM13 and MOLM-14 that had FLT3 and/or FLT3/ITD gene for 4 hours, respectively, and then the samples were collected. The effects of the compounds on the phosphorylation of proteins such as STATS, C-Myc, ERK, NF-κB p65, AKT in cells were tested (FIGS. 1a-1f).

[2] = system: human acute myeloid leukemia cell strain MOLM-14; test: Proliferation of MOLM-14 cells, Cell Titer-Glo; type: cell-based; settings: for GI50: Homo sapiens, MOLM-14, 72 hours, Cell Titer-Glo, FLT3/ITD and wild-type FLT3, read-out: GI50 MOLM14
Protocol: as §1

Compound	GI50 [1] [nM]	GI50 (P210/T315I-BaF3) [nM]	GI50 (P210-BaF3) [nM]	GI50 (TEL-VEGFR2-BaF3) [nM]	phosphorylation of the protein kinase FLT3 (protein kinase FLT3)	GI50 [2] [nM]	inhibition of MOLM13 (in words) ([1]; summary of Table 3)	inhibition of MOLM14 (in words) ([2]; summary of Table 3)
CC(=O)Nc1cc(Oc2ccc(NC(=O)Cc3ccccc3C(F)(F)F)cc2)ncn1 [Example 135, N-[4-(6-acetylamino-pyrimidin-4-yloxy)-phenyl]-2-(2-trifluoromethyl-phenyl)-acetamide]	466	> 10000	> 10000	1440	capable of inhibiting phosphorylation	343	–	–
CC(=O)Nc1cc(Oc2ccc(NC(=O)Cc3ccc(F)cc3F)cc2)ncn1 [Example 5, N-[4-(6-acetylamino-pyrimidin-4-yloxy)-phenyl]-2-(2,4-difluoro-phenyl)-acetamide]	267	–	> 10000	357	capable of inhibiting phosphorylation	333	selectively and strongly inhibited	selectively and strongly inhibited
